Values of other authors as cited in publication PMC5014530 (Molecular Therapy. Nucleic Acids, 2016).

Test system: mitochondrial membranes

In the case of (KLAKLA)2, the “Mechanism of apoptosis induction” value is given as “disrupts mitochondrial membranes to cause apoptosis”.
